In US5177087A, “Cyclic amine compounds and their use” (Takeda Chemical Industries, Ltd., priority 1989, dated 1993):
Structures can show the parent of a compound that is named as a salt. Where two headings read alike, the source gives them in different places.

Assays:
[1] = Antihypoxic action: survival time of mice in a decompressed desiccator; assay type: in vivo, Male mice (ICR/Jcl strain); details: Mus musculus, ip, read-out: survival time of drug-treated group (mean survival time of control group = 100)
Procedure: Male mice (ICR/Jcl strain, 5-6 weeks old) were divided into two groups, i.e. a control group and a drug-treated group. A desiccator was decompressed to an internal pressure of 35 mmHg with a vacuum pump and, then, connected to two desiccators housing mice of the two groups, respectively. After an equilibrium was established in internal pressure among the desiccators, the time to the onset of respiratory arrest of each mouse in each group was measured and regarded as survival time. Then, taking the mean survival time in the control group as 100, the survival time of the drug-treated group was expressed in percentage (Table 7). The test drug was administered intraperitoneally 30 minutes before induction of hypoxia. The control group received physiological saline.

[2] = Antiedematous action on the brain: microsphere-induced cerebral edema, water, sodium and ion contents of hemisphere; assay type: in vivo, Male rats (Wistar/Jcl); details: 72 hours after microsphere infusion
Source text: Male rats (Wistar/Jcl, 11 weeks old) underwent cervical incision under ether anesthesia and the pterygopalatine artery and external carotid artery were ligated. After blockade of the common carotid artery bloodstream, a cannula was inserted retrogradely from the external carotid artery and indwelt at the origin of the internal carotid artery. Then, a suspension of carbon microspheres (50±10 μm in diameter) in 20% dextran was infused selectively into the internal carotid artery through the indwelt cannula over a period of about 10 seconds. Seventy-two hours after infusion, the brain was removed and divided into the right and left cerebral hemispheres. Then, the water, sodium and ion contents of each hemisphere were determined. The test drug was administered intraperitoneally 30 minutes before and 5 hours after infusion of the microspheres on the day of microsphere infusion and twice a day, i.e. in the morning and in the afternoon, thereafter till the end of the experiment. 5% Gum arabic was used in the control group.

cholinesterase = target: T1, cholinesterase (Rattus norvegicus, UniProt P37136); test: Anti-cholinesterase action, (acetyl-[^3 H])-acetylcholine as substrate, S1 fraction of cerebral cortex homogenate; assay type: biochemical, male Wistar rats
T1 construct: the S1 fraction of the cerebral cortex homogenate from male Wistar rats was used as cholinesterase source; from tissue; host or cells: cerebral cortex homogenate, S1 fraction, male Wistar rats
T1 sequence (P37136 32-614): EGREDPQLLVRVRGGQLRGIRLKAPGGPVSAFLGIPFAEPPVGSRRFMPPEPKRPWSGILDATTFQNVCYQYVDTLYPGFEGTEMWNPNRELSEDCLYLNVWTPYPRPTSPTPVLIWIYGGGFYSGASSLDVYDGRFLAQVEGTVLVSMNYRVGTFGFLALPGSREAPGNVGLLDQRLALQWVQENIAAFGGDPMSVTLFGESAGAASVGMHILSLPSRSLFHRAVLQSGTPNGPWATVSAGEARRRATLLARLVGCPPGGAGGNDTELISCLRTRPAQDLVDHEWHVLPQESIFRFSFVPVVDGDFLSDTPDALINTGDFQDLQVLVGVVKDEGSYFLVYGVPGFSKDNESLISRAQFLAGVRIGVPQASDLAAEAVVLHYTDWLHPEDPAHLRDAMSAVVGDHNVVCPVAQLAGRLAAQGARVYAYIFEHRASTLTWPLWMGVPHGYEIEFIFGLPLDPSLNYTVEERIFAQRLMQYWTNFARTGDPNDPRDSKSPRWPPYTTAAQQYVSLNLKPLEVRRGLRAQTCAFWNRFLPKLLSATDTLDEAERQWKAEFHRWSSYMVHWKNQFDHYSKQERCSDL
Procedure: The anti-cholinesterase action of the compound of the present invention was investigated using (acetyl-[^3 H])-acetylcholine. Thus, the S1 fraction of the cerebral cortex homogenate from male Wistar rats was used as cholinesterase source, and (acetyl-[^3 H])-acetylcholine as the substrate and the compound of the invention as the test compound were incubated for 30 minutes and after termination of the reaction, a toluene scintillator was added. The mixture was shaken and the radioactivity of the reaction product [^3 H]-acetic acid in the toluene layer was measured with a scintillation counter to estimate the cholinesterase-antagonizing activity.
The anticholinesterase activity of the test compound was expressed as 50% inhibitory concentration (IC50) in Table 9.

[3] = Action on scopolamine-induced impairment of spontaneous alternation in a T-maze; assay type: in vivo, rats
Procedure: The nootropic effect of the compound of the invention (Example 59) was investigated using spontaneous alternation in rats (Murray and Fibiger, Behav Neurosci. 100, 23-32, 1986) as an indicator. Nine-week-old rats were used. Feeding was restricted so that the body weight of the rat would be reduced to about 80% of free-feeding weight. Then, training was started. Training consisted of 11 trials. In the first trial one food pellet (45 mg) was placed in each of food receptacles set at ends of two arms and the rat was allowed to select either arm freely for the food reward. In the subsequent 10 trials from the second to the eleventh trial, the diet was placed only on the arm opposite to the arm which had been selected immediately before. The selection of the arm where the diet was placed was regarded as a correct response. In each acquistion trial, the rat was first placed in a home compartment and 15 seconds later the door was opened to let the animal explore freely and select either arm. The rat was brought back to the home compartment after it had ingested the pellet in the case of a correct response or after it had reached the food receptacle in the case of an incorrect response. In the experiment, the rats which had attained the correct response rate of not less than 80% were used. Scopolamine bromide was administered intraperitoneally in a dose of 0.3 mg/kg 30 minutes before the beginning of the experiment and the test compound (Example 59) was administered orally 30 minutes before scopolamine administration. The results of the experiment are expressed in correct response rate. For the analysis of significant difference between the groups, Student's t-test (two-tailed) was used. In the first experiment, groups of 7-9 rats were used, and in the second experiment, groups of 12-14 rats were used. The results are shown in Table 10 (the results in the second experiment are shown in the parentheses).

[4] = 10 mg/kg, i.p., 30 minutes before hypoxia, 35 mmHg
[5] = 30 minutes incubation, read-out: Anticholinesterase activity IC50

O=C(c1ccc(N2CCN(Cc3ccccc3)CC2)cc1)C1CCNCC1 [Example 11-4]
response vs control in vivo at 0.1 mg/kg [1]: 116 ± 11%
response vs control in vivo at 0.5 mg/kg [1]: 148 ± 17%
response vs control in vivo at 2 mg/kg [1]: 288 ± 82%
response vs control in vivo at 10 mg/kg [1, 4]: 216 ± 53%

OC(c1ccncc1)c1ccc(N2CCCCC2)cc1 (stereo not drawn) [Example 12, 4-[(α-Hydroxy-4-piperidino)benzyl]pyridine dihydrochloride]
response vs control in vivo at 0.1 mg/kg [1]: 84 ± 4%
response vs control in vivo at 0.5 mg/kg [1]: 152 ± 19%
response vs control in vivo at 2 mg/kg [1]: 163 ± 23%
response vs control in vivo at 10 mg/kg [1, 4]: 132 ± 8%

OC(c1ccc(N2CCC(Cc3ccccc3)CC2)cc1)C1CCNCC1 (centres unmarked) [Example 14-3]
response vs control in vivo at 0.1 mg/kg [1]: 108 ± 9%
response vs control in vivo at 0.5 mg/kg [1]: 162 ± 24%
response vs control in vivo at 2 mg/kg [1]: 137 ± 11%
response vs control in vivo at 10 mg/kg [1, 4]: 398 ± 95%

OC(c1ccc(N2CCN(Cc3ccccc3)CC2)cc1)C1CCNCC1 (centres unmarked) [Example 14-4]
response vs control in vivo at 0.5 mg/kg [1]: 152 ± 28%
response vs control in vivo at 2 mg/kg [1]: 188 ± 22%
response vs control in vivo at 10 mg/kg [1, 4]: 197 ± 32%

OC(c1ccc(N2CCCCC2)cc1N1CCCCC1)C1CCNCC1 (centres unmarked) [Example 14-6]
response vs control in vivo at 0.1 mg/kg [1]: 120 ± 7%
response vs control in vivo at 0.5 mg/kg [1]: 154 ± 17%
response vs control in vivo at 2 mg/kg [1]: 143 ± 17%
response vs control in vivo at 10 mg/kg [1, 4]: 123 ± 6%
Water ([2]; 50 mg × 7, i.p., control group 80.35 ± 0.22): 79.36 ± 0.13%
Na ([2]; 50 mg × 7, i.p., control group 305 ± 19): 256 ± 5 mEq/kg
K ([2]; 50 mg × 7, i.p., control group 488 ± 11): 506 ± 5 mEq/kg

CN(C)c1ccc(CC2CCNCC2)cc1 [Example 20, 4-(4-Dimethylaminobenzyl)piperidine dihydrochloride]
response vs control in vivo at 0.5 mg/kg [1]: 99 ± 5%
response vs control in vivo at 2 mg/kg [1]: 118 ± 5%
Water ([2]; 5 mg × 7, i.p., control group 80.59 ± 0.19): 79.80 ± 0.19%
Na ([2]; 5 mg × 7, i.p., control group 306 ± 10): 268 ± 8 mEq/kg
K ([2]; 5 mg × 7, i.p., control group 488 ± 2): 499 ± 5 mEq/kg

c1cc(N2CCCCC2)ccc1CC1CCNCC1 [Example 21-1, 4-(4-piperidinobenzyl)piperidine dihydrochloride]
response vs control in vivo at 0.1 mg/kg [1]: 133 ± 11%
response vs control in vivo at 0.5 mg/kg [1]: 155 ± 21%
response vs control in vivo at 2 mg/kg [1]: 231 ± 59%
response vs control in vivo at 10 mg/kg [1]: 277 ± 55%

c1ccc(CC2CCN(c3ccc(CC4CCNCC4)cc3)CC2)cc1 [Example 21-2]
response vs control in vivo at 0.1 mg/kg [1]: 165 ± 26%
response vs control in vivo at 0.5 mg/kg [1]: 147 ± 14%
response vs control in vivo at 2 mg/kg [1]: 147 ± 8%
response vs control in vivo at 10 mg/kg [1, 4]: 280 ± 59%

O=C(CCC1CCN(Cc2ccccc2)CC1)c1ccc(N2CCCC2)cc1 [Example 59, 1-Benzyl-4-[2-(4-pyrrolidinobenzoyl)ethyl]piperidine]
IC50 (cholinesterase; Anticholinesterase activity IC50, 30 minutes incubation): 27 nM
Mean correct response rate ± standard error ([3]; 3 mg/kg p.o. + scopolamine 0.3 mg/kg i.p., first experiment, scopolamine control 53.8 ± 4.6): 61.4 ± 7.1
ameliorative effect on correct response rate ([3]; 10 mg/kg): significant ameliorative effect
antagonism of the decrease of correct response rate by scopolamine ([3]; 3 and 10 mg/kg p.o.): dose-dependently antagonized

O=C(CCC1CCN(Cc2ccccc2)CC1)c1ccc(N2CCCCC2)cc1 [Example 60-1]
IC50 (cholinesterase; [5]): 52 nM

O=C(CCC1CCN(Cc2ccccc2)CC1)c1ccc(N2CCCCCC2)cc1 [Example 60-2]
IC50 (cholinesterase; [5]): 250 nM

CN(C)c1ccc(C(=O)CCC2CCN(Cc3ccccc3)CC2)cc1 [Example 60-3]
IC50 (cholinesterase; [5]): 53 nM

CCNc1ccc(C(=O)CCC2CCN(Cc3ccccc3)CC2)cc1 [Example 60-4]
IC50 (cholinesterase; [5]): 98 nM

O=C(CCC1CCN(Cc2ccccc2)CC1)c1ccc(N2CCOCC2)cc1 [Example 60-5]
IC50 (cholinesterase; [5]): 10 nM

O=C(CCC1CCN(Cc2ccccc2)CC1)c1ccc(-n2ccnc2)cc1 [Example 60-6]
IC50 (cholinesterase; [5]): 20 nM

CN1CCN(c2ccc(C(=O)CCC3CCN(Cc4ccccc4)CC3)cc2)CC1 [Example 60-7]
IC50 (cholinesterase; [5]): 8.4 nM

CNc1ccc(C(=O)CCC2CCN(Cc3ccccc3)CC2)cc1 [Example 60-8]
IC50 (cholinesterase; [5]): 150 nM

O=C(CCC1CCN(Cc2ccccc2)CC1)c1ccc(N2CCCC2)cc1 [Example 60-10]
IC50 (cholinesterase; [5]): 40 nM

O=C(CCC1CCN(Cc2ccccc2)CC1)c1ccc(N2CCCC2)cc1 [Example 60-11]
IC50 (cholinesterase; [5]): 32 nM

O=C(CCC1CCN(Cc2ccccc2)CC1)c1ccc(N2CCCC2)cc1 [Example 60-12]
IC50 (cholinesterase; [5]): 28 nM

CN(C)c1ccc(C(=O)CCC2CCN(Cc3ccccc3)CC2)cc1 [Example 60-13]
IC50 (cholinesterase; [5]): 48 nM

CN1CCN(c2ccc(C(=O)CCC3CCN(Cc4ccccc4)CC3)cc2)CC1 [Example 60-14]
IC50 (cholinesterase; [5]): 6.8 nM

O=C(CCC1CCN(Cc2ccccc2)CC1)c1ccc(N2CCCCC2)cc1 [Example 60-15]
IC50 (cholinesterase; [5]): 61 nM

O=C(CCC1CCN(Cc2ccccc2)CC1)c1ccc(N2CCNCC2)cc1 [Example 60-17]
IC50 (cholinesterase; [5]): 6.1 nM

CC(=O)N1CCN(c2ccc(C(=O)CCC3CCN(Cc4ccccc4)CC3)cc2)CC1 [Example 60-19]
IC50 (cholinesterase; [5]): 2.9 nM

O=C(CCC1CCN(Cc2ccccc2)CC1)c1ccc(N2CCOCC2)cc1 [Example 60-20]
IC50 (cholinesterase; [5]): 15 nM

O=C(CCC1CCN(Cc2ccccc2)CC1)c1ccc(N2CCN(C(c3ccccc3)c3ccccc3)CC2)cc1 [Example 60-21]
IC50 (cholinesterase; [5]): 710 nM

O=C(CCC1CCN(Cc2ccccc2)CC1)c1ccc(NCCN2CCCCC2)cc1 [Example 60-22]
IC50 (cholinesterase; [5]): 17 nM

O=C(CCCC1CCN(Cc2ccccc2)CC1)c1ccc(N2CCCC2)cc1 [Example 69, 1-Benzyl-4-[3-(4-pyrrolidinobenzoyl)propyl]piperidine fumarate]
IC50 (cholinesterase; [5]): 220 nM
